molecular target: recombinant full length HPK-1 enzyme (Homo sapiens (Human), UniProt Q92918); test: HPK-1 biochemical enzyme assay (ADP-Glo kinase inhibition); settings: recombinant full length HPK-1 6.8 nM, 10 μM ATP, 12.5 μM MBP, 30 mins at 25° C.
Summary of the method: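 ADP-Glo readout of ADP formed after a 30 min, 25° C. reaction of 6.8 nM full-length HPK-1 with swine myelin basic protein (12.5 μM) and ATP (10 μM) in Tris pH 7.4 buffer with MgCl2, DTT and BSA. Ten compound concentrations tested; percent inhibition set against vehicle (0%) and no-enzyme (100%) controls gave IC50.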

Sequence of recombinant full length HPK-1 enzyme (Q92918 whole entry, species assumed): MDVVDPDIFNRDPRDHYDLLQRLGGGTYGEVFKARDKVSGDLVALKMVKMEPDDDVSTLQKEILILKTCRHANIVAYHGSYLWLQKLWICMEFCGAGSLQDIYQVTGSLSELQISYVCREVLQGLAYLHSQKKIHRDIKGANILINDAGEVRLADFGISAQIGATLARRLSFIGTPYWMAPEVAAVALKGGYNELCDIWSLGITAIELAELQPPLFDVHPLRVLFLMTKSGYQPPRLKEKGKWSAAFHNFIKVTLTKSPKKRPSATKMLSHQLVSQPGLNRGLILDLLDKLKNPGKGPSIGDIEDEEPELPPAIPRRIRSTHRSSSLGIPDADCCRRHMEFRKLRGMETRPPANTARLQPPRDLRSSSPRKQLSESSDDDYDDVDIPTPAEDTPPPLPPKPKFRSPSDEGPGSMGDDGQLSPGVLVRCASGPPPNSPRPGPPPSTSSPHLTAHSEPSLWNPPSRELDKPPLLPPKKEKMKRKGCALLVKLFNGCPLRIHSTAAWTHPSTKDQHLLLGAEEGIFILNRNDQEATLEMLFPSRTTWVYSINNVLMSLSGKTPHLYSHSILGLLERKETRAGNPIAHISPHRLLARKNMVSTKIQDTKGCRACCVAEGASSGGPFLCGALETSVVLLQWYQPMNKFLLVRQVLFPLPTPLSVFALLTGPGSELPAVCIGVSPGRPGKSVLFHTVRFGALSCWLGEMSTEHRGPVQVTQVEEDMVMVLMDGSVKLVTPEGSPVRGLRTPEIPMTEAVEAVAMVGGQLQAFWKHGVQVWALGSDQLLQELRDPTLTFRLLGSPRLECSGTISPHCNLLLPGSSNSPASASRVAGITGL

Row | IC50 [nM] | Compound
1 | 10 to 100 | Cc1c(Nc2cc[nH]c(=O)c2C(=O)Nc2ccc(N3CCOCC3)cc2)cnc2c1NCCO2 [Example 205, 4-((8-methyl-2,3-dihydro-1H-pyrido[2,3-b][1,4]oxazin-7-yl)amino)-N-(4-morpholinophenyl)-2-oxo-1,2-dihydropyridine-3-carboxamide]
2 | ≤ 10 | Cc1c(Nc2cc[nH]c(=O)c2C(=O)Nc2ccc(N3CCCC(C(C)(C)O)C3)cc2)cnc2c1NCCO2 (centres unmarked) [Example 212, N-(4-(3-(2-hydroxypropan-2-yl)piperidin-1-yl)phenyl)-4-((8-methyl-2,3-dihydro-1H-pyrido[2,3-b][1,4]oxazin-7-yl)amino)-2-oxo-1,2-dihydropyridine-3-carboxamide]
3 | 100 to 1000 | Cc1c(Nc2cc[nH]c(=O)c2C(=O)Nc2ccc3c(c2)NC(=O)CO3)cnc2c1NCCO2 [Example 221, 4-((8-methyl-2,3-dihydro-1H-pyrido[2,3-b][1,4]oxazin-7-yl)amino)-2-oxo-N-(3-oxo-3,4-dihydro-2H-benzo[b][1,4]oxazin-6-yl)-1,2-dihydropyridine-3-carboxamide]
4 | ≤ 10 | Cc1c(Nc2cc[nH]c(=O)c2C(=O)Nc2ccc(N3CCN4CCC[C@H]4C3)cc2)cnc2c1NCCO2 [Example 328, (S)-N-(4-(hexahydropyrrolo[1,2-a]pyrazin-2(1H)-yl)phenyl)-4-((8-methyl-2,3-dihydro-1H-pyrido[2,3-b][1,4]oxazin-7-yl)amino)-2-oxo-1,2-dihydropyridine-3-carboxamide]
5 | 100 to 1000 | Cc1c(Nc2cc[nH]c(=O)c2C(=O)Nc2ccc(N3CCN(C)CC3)c(C(=O)N(C)C)c2)cnc2c1NCCO2 [Example 208, N-(3-(dimethylcarbamoyl)-4-(4-methylpiperazin-1-yl)phenyl)-4-((8-methyl-2,3-dihydro-1H-pyrido[2,3-b][1,4]oxazin-7-yl)amino)-2-oxo-1,2-dihydropyridine-3-carboxamide]
6 | 10 to 100 | CC(=O)N1CCN(c2ccc(NC(=O)c3c(Nc4cnc5c(c4C)NCCO5)cc[nH]c3=O)cc2)CC1 [Example 402, N-(4-(4-acetylpiperazin-1-yl)phenyl)-4-((8-methyl-2,3-dihydro-1H-pyrido[2,3-b][1,4]oxazin-7-yl)amino)-2-oxo-1,2-dihydropyridine-3-carboxamide]
7 | 10 to 100 | Cc1c(Nc2cc[nH]c(=O)c2C(=O)Nc2ccc(S(=O)(=O)NC3CC3)cc2)cnc2c1NCCO2 [Example 231, N-(4-(N-cyclopropylsulfamoyl)phenyl)-4-((8-methyl-2,3-dihydro-1H-pyrido[2,3-b][1,4]oxazin-7-yl)amino)-2-oxo-1,2-dihydropyridine-3-carboxamide]
8 | 10 to 100 | Cc1c(Nc2cc[nH]c(=O)c2C(=O)Nc2ccc(N3CCN(C)CC3)c(-n3cnnc3)c2)cnc2c1NCCO2 [Example 211, 4-((8-methyl-2,3-dihydro-1H-pyrido[2,3-b][1,4]oxazin-7-yl)amino)-N-(4-(4-methylpiperazin-1-yl)-3-(4H-1,2,4-triazol-4-yl)phenyl)-2-oxo-1,2-dihydropyridine-3-carboxamide]
9 | 100 to 1000 | Cc1c(Nc2cc[nH]c(=O)c2C(=O)Nc2ccc3sc(NC(=O)[C@@H]4C[C@@H]4F)nc3c2)cnc2c1NCCO2 [Example 297, N-(2-((1S,2S)-2-fluorocyclopropane-1-carboxamido)benzo[d]thiazol-5-yl)-4-((8-methyl-2,3-dihydro-1H-pyrido[2,3-b][1,4]oxazin-7-yl)amino)-2-oxo-1,2-dihydropyridine-3-carboxamide]
10 | 10 to 100 | Cc1c(Nc2cc[nH]c(=O)c2C(=O)Nc2ccc(N3CCN4C(=O)CC[C@H]4C3)cc2)cnc2c1NCCO2 [Example 359, (S)-4-((8-methyl-2,3-dihydro-1H-pyrido[2,3-b][1,4]oxazin-7-yl)amino)-2-oxo-N-(4-(6-oxohexahydropyrrolo[1,2-a]pyrazin-2(1H)-yl)phenyl)-1,2-dihydropyridine-3-carboxamide]
11 | 10 to 100 | Cc1c(Nc2cc[nH]c(=O)c2C(=O)Nc2ccc3ncsc3c2)cnc2c1NCCO2 [Example 248, N-(benzo[d]thiazol-6-yl)-4-((8-methyl-2,3-dihydro-1H-pyrido[2,3-b][1,4]oxazin-7-yl)amino)-2-oxo-1,2-dihydropyridine-3-carboxamide]

The next lines start with the compound.

Row | Compound | IC50 [nM]
12 | Cc1cc(N2CCN(c3ccc(NC(=O)c4c(Nc5cnc6c(c5C)NCCO6)cc[nH]c4=O)cc3)CC2)ccn1 [Example 340, 4-((8-methyl-2,3-dihydro-1H-pyrido[2,3-b][1,4]oxazin-7-yl)amino)-N-(4-(4-(2-methylpyridin-4-yl)piperazin-1-yl)phenyl)-2-oxo-1,2-dihydropyridine-3-carboxamide] | ≤ 10
13 | Cc1c(Nc2cc[nH]c(=O)c2C(=O)Nc2ccc(N3CCN(c4cccnc4)CC3)cc2)cnc2c1NCCO2 [Example 286, 4-((8-methyl-2,3-dihydro-1H-pyrido[2,3-b][1,4]oxazin-7-yl)amino)-2-oxo-N-(4-(4-(pyridin-3-yl)piperazin-1-yl)phenyl)-1,2-dihydropyridine-3-carboxamide] | ≤ 10
14 | Cc1c(Nc2cc[nH]c(=O)c2C(=O)Nc2ccc(N3CCN(C(C)C)CC3)cc2)cnc2c1NCC(C)(C)O2 [Example 177, N-(4-(4-isopropylpiperazin-1-yl)phenyl)-2-oxo-4-((3,3,8-trimethyl-2,3-dihydro-1H-pyrido[2,3-b][1,4]oxazin-7-yl)amino)-1,2-dihydropyridine-3-carboxamide] | ≤ 10
15 | Cc1c(Nc2cc[nH]c(=O)c2C(=O)Nc2ccc(N3CCN(C(=O)C4CC4C)CC3)cc2)cnc2c1NCCO2 (centres unmarked) [Example 305, 4-((8-methyl-2,3-dihydro-1H-pyrido[2,3-b][1,4]oxazin-7-yl)amino)-N-(4-(4-(2-methylcyclopropane-1-carbonyl)piperazin-1-yl)phenyl)-2-oxo-1,2-dihydropyridine-3-carboxamide] | ≤ 10
16 | Cc1c(Nc2cc[nH]c(=O)c2C(=O)Nc2ccc(N3CCN(c4ccncc4)CC3)cc2)cnc2c1NCCO2 [Example 288, 4-((8-methyl-2,3-dihydro-1H-pyrido[2,3-b][1,4]oxazin-7-yl)amino)-2-oxo-N-(4-(4-(pyridin-4-yl)piperazin-1-yl)phenyl)-1,2-dihydropyridine-3-carboxamide] | ≤ 10
17 | COCCN1CCN(c2ccc(NC(=O)c3c(Nc4cnc5c(c4C)NCCO5)cc[nH]c3=O)cc2)CC1 [Example 140, N-(4-(4-(2-methoxyethyl)piperazin-1-yl)phenyl)-4-((8-methyl-2,3-dihydro-1H-pyrido[2,3-b][1,4]oxazin-7-yl)amino)-2-oxo-1,2-dihydropyridine-3-carboxamide] | ≤ 10
18 | COC(C)(C)CN1CCN(c2ccc(NC(=O)c3c(Nc4cnc5c(c4C)NCCO5)cc[nH]c3=O)cc2)CC1 [Example 310, N-(4-(4-(2-methoxy-2-methylpropyl)piperazin-1-yl)phenyl)-4-((8-methyl-2,3-dihydro-1H-pyrido[2,3-b][1,4]oxazin-7-yl)amino)-2-oxo-1,2-dihydropyridine-3-carboxamide] | ≤ 10
19 | Cc1c(Nc2cc[nH]c(=O)c2C(=O)Nc2cnn(C3CCN(C)CC3)c2)cnc2c1NCC(C)O2 (centres unmarked) [Example 192, 4-((3,8-dimethyl-2,3-dihydro-1H-pyrido[2,3-b][1,4]oxazin-7-yl)amino)-N-(1-(1-methylpiperidin-4-yl)-1H-pyrazol-4-yl)-2-oxo-1,2-dihydropyridine-3-carboxamide] | 10 to 100
20 | Cc1c(Nc2cc[nH]c(=O)c2C(=O)Nc2ccc(N3CCN(CCCS(C)(=O)=O)CC3)cc2)cnc2c1NCCO2 [Example 225, 4-((8-methyl-2,3-dihydro-1H-pyrido[2,3-b][1,4]oxazin-7-yl)amino)-N-(4-(4-(3-(methylsulfonyl)propyl)piperazin-1-yl)phenyl)-2-oxo-1,2-dihydropyridine-3-carboxamide] | ≤ 10
21 | Cc1c(Nc2cc[nH]c(=O)c2C(=O)Nc2ccc(N3CCN(C(C)C)CC3)cc2)cnc2c1NCC(C)O2 (centres unmarked) [Example 405, 4-((3,8-dimethyl-2,3-dihydro-1H-pyrido[2,3-b][1,4]oxazin-7-yl)amino)-N-(4-(4-isopropylpiperazin-1-yl)phenyl)-2-oxo-1,2-dihydropyridine-3-carboxamide] | 10 to 100
22 | Cc1c(Nc2cc[nH]c(=O)c2C(=O)Nc2ccc(N3CCN(C)CC3)cc2)cnc2c1NCC(C)O2 (centres unmarked) [Example 165, 4-((3,8-dimethyl-2,3-dihydro-1H-pyrido[2,3-b][1,4]oxazin-7-yl)amino)-N-(4-(4-methylpiperazin-1-yl)phenyl)-2-oxo-1,2-dihydropyridine-3-carboxamide] | ≤ 10
23 | COCCN1CCN(c2ccc(NC(=O)c3c(Nc4cnc5c(c4C)NCCO5)cc[nH]c3=O)cc2)C[C@H]1C [Example 348, (R)-N-(4-(4-(2-methoxyethyl)-3-methylpiperazin-1-yl)phenyl)-4-((8-methyl-2,3-dihydro-1H-pyrido[2,3-b][1,4]oxazin-7-yl)amino)-2-oxo-1,2-dihydropyridine-3-carboxamide] | ≤ 10
24 | CN1CCN(c2ccc(NC(=O)c3c(Nc4cnc5c(c4)N(C)CCO5)cc[nH]c3=O)cc2)CC1 [Example 118, 4-((1-methyl-2,3-dihydro-1H-pyrido[2,3-b][1,4]oxazin-7-yl)amino)-N-(4-(4-methylpiperazin-1-yl)phenyl)-2-oxo-1,2-dihydropyridine-3-carboxamide] | 10 to 100
25 | Cc1c(Nc2cc[nH]c(=O)c2C(=O)Nc2ccc(N3CCN(C(=O)C4CCCC4)CC3)cc2)cnc2c1NCCO2 [Example 283, N-(4-(4-(cyclopentanecarbonyl)piperazin-1-yl)phenyl)-4-((8-methyl-2,3-dihydro-1H-pyrido[2,3-b][1,4]oxazin-7-yl)amino)-2-oxo-1,2-dihydropyridine-3-carboxamide] | ≤ 10
26 | COCCCN1CCN(c2ccc(NC(=O)c3c(Nc4cnc5c(c4C)NCC(C)O5)cc[nH]c3=O)cc2)CC1 (centres unmarked) [Example 406, 4-((3,8-dimethyl-2,3-dihydro-1H-pyrido[2,3-b][1,4]oxazin-7-yl)amino)-N-(4-(4-(3-methoxypropyl)piperazin-1-yl)phenyl)-2-oxo-1,2-dihydropyridine-3-carboxamide] | 10 to 100

From patent publication US20250282794A1 (CURADEV PHARMA LTD, priority 2022, published 2025)
